The values that follow come from PMC6033213, “Structurally simple synthetic 1, 4-disubstituted piperidines with high selectivity for resistant Plasmodium falciparum” (BMC Pharmacology & Toxicology, 2018).

Series [1] concerns P. falciparum Dd2. Kind of series: Secondary screen: parasite growth inhibition by parasite lactate dehydrogenase (pLDH) assay, Dd2. The class given is cell-based, Plasmodium falciparum. Details: key to Antiplasmodial activity class on Dd2: active, IC50 < 5 μg/mL; moderately active: 5 μg/mL ≤ IC50 ≤ 10 μg/mL; weakly active: IC50 ≥ 10 μg/mL. To be noted: for Antiplasmodial activity class on Dd2: Dd2 strain, class by IC50; for IC50 / IC90: Plasmodium falciparum, Dd2 chloroquine-resistant strain, pLDH assay, mean ± S.D.; for IC50: read-out: IC50; for IC90: read-out: IC90. From the text:
(§1) Two Plasmodium falciparum parasite strains were obtained from MR4 (Manassas, Virginia, USA) and stored in liquid nitrogen. The 3D7 (MRA-102) strain is chloroquine- sensitive while Dd2 is a multidrug resistant clone of the W2 strain with resistance to chloroquine, quinine, mefloquine, sulfadoxine and pyrimethamine. Parasite stocks were thawed, grown and maintained in continuous culture by the candle jar technique with some modifications. The culture consisted of 4% hematocrit suspension of human O+ erythrocytes in RPMI-1640 medium (10.43 g/L supplemented with 0.01 mg/mL gentamycin, 25 mM Hepes buffer, 25 mM NaHCO3) and 5 g Albumax II. All culture reagents were obtained from Sigma-Aldrich Inc. (Germany) except for Albumax II (Gibco; Invitrogen, USA). Cultures were incubated at 37 °C in 5% CO2.
(§2) After incubation the plate was frozen at − 20 °C for the parasite lactate dehydrogenase (pLDH) assay.
(§3) The reagent preparation and assay were done as described. The plates were subjected to 3 freeze-thaw cycles to haemolyze the red blood cells. One hundred microlitre (100 μL) of Malstat reagent was added to each required well of a fresh microtitre plate followed by 20 μL of culture. Then 25 μL of nitroblue tetrazolium/phenazine ethosulfate (NBT/PES) solution was added initiating the reaction. The plates were then incubated for an hour in the dark and optical density (OD) measured at 650 nm (Emax-Molecular Devices Corporation, California, USA).
(§4) For the parasite lactate dehydrogenase assay, the background OD of blank wells containing non parasitized red blood cells was subtracted from values of all test wells. OD values from control wells void of test compound represented the maximum pLDH activity. The OD values obtained were used to determine the IC50, and IC90 values using the software IC Method IC Estimator V1.2 [18], an online calculator of IC values. Each assay was done twice in duplicates and the 4 IC50 or CC50 values obtained were pooled together and expressed as mean IC ± S.D.

Series [2] concerns P. falciparum Dd2. Kind of series: Primary screen: in vitro parasite growth inhibition at a single concentration, fluorescence microscopy with acridine orange. The conditions noted are these: Plasmodium falciparum; 40 μg/mL, 48 h, Dd2 chloroquine-resistant strain. It is filed as cell-based, Plasmodium falciparum.
Source text: as §1
A primary screen for antiplasmodial activity at a single concentration was performed against Dd2 as described with some modifications, to identify active compounds. Stock solutions of compound (1 mg/mL) was initially dissolved in dimethylsulfoxide (DMSO), then gentamycin-free incomplete medium (without Albumax II) added giving 2% final DMSO; the solutions were sterilized and stored. The positive control solutions (artemether and quinine at 5 μg/mL) were prepared similarly. The compounds were tested at a final concentration of 40 μg/mL in duplicate in a 96 well microtitre plate (100 μL per well), followed by 100 μL of 1% parasitized blood. Positive and negative controls (no drug) were included. The plate was incubated under the same culture conditions as above for 48 h and antiplasmodial activity determined by fluorescence microscopy (Leitz Wetzlar, Germany) with acridine orange stain at × 40 magnification under oil immersion. The number of infected erythrocytes (Ei) was counted in 20 monolayer fields (approximately 1500 cells per field) and the percentage parasitaemia was calculated using the formula:1 %parasitaemia=∑Ei/30,000×100
The percentage inhibition per concentration was then obtained using the formula below:2 percentage%inhibition=%parasitaemia of control well‐%parasitaemia of test well/%parasitaemia of control well×100

The subject of another series is P. falciparum 3D7. Kind of series: Secondary screen: parasite growth inhibition by parasite lactate dehydrogenase (pLDH) assay, 3D7. The class given is cell-based, Plasmodium falciparum. Details: key to Antiplasmodial activity class on 3D7: active, IC50 < 5 μg/mL; moderately active: 5 μg/mL ≤ IC50 ≤ 10 μg/mL; weakly active: IC50 ≥ 10 μg/mL. To be noted: for Antiplasmodial activity class on 3D7: 3D7 strain, class by IC50; for IC50 / IC90: Plasmodium falciparum, 3D7 chloroquine-sensitive strain, pLDH assay, mean ± S.D.; for IC50: read-out: IC50; for IC90: read-out: IC90.
Source text: as §1, §2, §3, §4

The subject of series [3] is LLC-MK2 monkey kidney epithelial cells. Kind of series: Cytotoxicity test, MTT/formazan assay. The class given is cell-based. The conditions noted are these: for Mean SI: mean of the Selectivity Indices of the 3D7 and Dd2 parasite strains; for SI on 3D7: CC50 on LLC-MK2 cells/IC50 on P. falciparum 3D7. As for the experimental part: (§5) This was done on monkey kidney epithelial cells, LLC-MK2, (ATCC, USA) as described except for use of same culture medium and conditions for P falciparum above. The cells, 10,000 in 100 μL medium per well, were cultured for 24 h to become confluent and attached to the bottom of the well and the medium replaced with 100 μL of fresh medium. […] A negative control without test substance was included. The plates were incubated for 72 h at 37 °C in 5% CO2 and cell viability were determined using microscopy to observe dead cells which appeared dark and deformed. This was followed by the MTT/formazan assay as described above with slight modification. The CC50 values (50% cytotoxic concentration) for each compound was obtained using Microsoft excel 2007. The selectivity index (SI) was calculated using the formula:3 SI=CC50onLLC‐MK2cells/IC50onP.falciparum
as §4

Series [4] in a line: Cytotoxicity test, MTT/formazan assay. It is filed as cell-based, monkey. The conditions noted are these: monkey, LLC-MK2 monkey kidney epithelial cells; LLC-MK2 cells, 72 h, MTT/formazan. As for the experimental part:
as §5, §4

Values after ≈ are worked out from the molar mass of the structure shown.

What is called IC50 is the concentration that inhibits the measured activity by half. The term IC90 denotes the concentration at which the effect reaches the 90% level. What is called inhibition is the relative decrease from the control value, in per cent. What is called CC50 is the concentration that lowers cell viability or growth by half. As for `OC(c1ccc(F)cc1)C1CCN(Cc2ccc(Cl)cc2)CC1` (stereo not drawn) [Compound 9, [1-(4-chlorobenzyl)piperidin-4-yl] [4-fluorophenyl] methanol], in the series with P. falciparum Dd2 [1], the “Antiplasmodial activity class on Dd2” value was “active”, the IC50 turned out to be 1.67 ± 0.24 µg/mL (≈ 5 µM) and the concentration for an effect of 90% (IC90) stood at 16.1 ± 2.13 µg/mL (≈ 48.2 µM). This compound also yielded an inhibition at 40 µg/mL in the series on P. falciparum Dd2 [2] of 93.2%. Moreover, in the series on P. falciparum 3D7, the “Antiplasmodial activity class on 3D7” value is given as “active”, the 50% inhibitory concentration (IC50) worked out at 1.53 ± 0.24 µg/mL (≈ 4.58 µM) and the IC90 was 16.1 ± 2.13 µg/mL (≈ 48.2 µM). Besides, the “Mean SI” value in series [3] is given as 156.25 ± 9.5. In addition, half-maximal cytotoxicity in series [4] (CC50 at 72 h) was put at 250 µg/mL (≈ 749 µM).

With `OC(c1ccc(F)cc1)C1CCN(Cc2ccc(Br)cc2)CC1` (stereo not drawn) [Compound 11, [1-(4-bromobenzyl)piperidin-4-yl] [4-fluorophenyl] methanol], in the series with P. falciparum Dd2 [1], the “Antiplasmodial activity class on Dd2” value is on record as “active”, the IC50 is 1.03 µg/mL (≈ 2.72 µM) and the IC90 amounted to 27.8 ± 0.98 µg/mL (≈ 73.5 µM). The compound also registered an inhibition at 40 µg/mL with P. falciparum Dd2 [2] of 85.6%. For the same compound, in the series on P. falciparum 3D7, the “Antiplasmodial activity class on 3D7” value was “active”, the concentration for half-maximal inhibition (IC50) worked out at 2.51 ± 0.3 µg/mL (≈ 6.64 µM) and the IC90 was 16.8 ± 0.88 µg/mL (≈ 44.4 µM). Moreover, in series [3], the “SI on 3D7” value was 74.49 and the “Mean SI” value was 128.26 ± 76.1. The compound also returned a 50% cytotoxic concentration (CC50) at 72 h in series [4] of 188 µg/mL (≈ 496 µM).

On to `Cc1ccc(CN2CCC(C(O)c3ccc(F)cc3)CC2)cc1` (stereo not drawn) [Compound 12, [1-(4-methylbenzyl)piperidin-4-yl] [4-fluorophenyl] methanol], for which, in the series on P. falciparum Dd2 [1], the “Antiplasmodial activity class on Dd2” value is given as “active”, the IC50 was 2.78 ± 0.09 µg/mL (≈ 8.87 µM) and the IC90 is 10.2 ± 3.31 µg/mL (≈ 32.5 µM). 40 µg/mL produced 83.1% inhibition in the series on P. falciparum Dd2 [2]. For the same compound, in the series on P. falciparum 3D7, the “Antiplasmodial activity class on 3D7” value is recorded as “active”, the 50% inhibitory concentration (IC50) is 3.37 ± 0.82 µg/mL (≈ 10.8 µM) and the 90% effect concentration (IC90) is 15.7 µg/mL (≈ 50.2 µM). In addition, in series [3], the “SI on 3D7” value is on record as 55.52 and the “Mean SI” value is 61.46 ± 8.39. The “SI on Dd2” value in series [3] (CC50 on LLC-MK2 cells/IC50 on P. falciparum Dd2) worked out at 67.39. In series [4], this compound came in with a CC50 at 72 h of 188 µg/mL (≈ 598 µM).
